Test results as given in ChEMBL document CHEMBL3880421, “Indazole compounds and pharmaceutical compositions for inhibiting protein kinases, and methods for their use” (2003).

Experiments:
[1] = Antiproliferative activity against VEGF-stimulated HUVEC cells assessed as reduction in cell viability at 2 nM preincubated for 1 hr followed by addition of VEGF measured after 72 hrs by MTT assay; type: functional; conditions: Homo sapiens
[2] = Antiproliferative activity against VEGF-stimulated HUVEC cells assessed as reduction in cell viability at 0.5 nM preincubated for 1 hr followed by addition of VEGF measured after 72 hrs by MTT assay; type: functional; conditions: Homo sapiens

Row | SMILES | inhibition at 0.002 µM [1] [%] | inhibition at 0.0005 µM [2] [%]
1 | O=C(NCCC1=CCCCC1)c1ccccc1Nc1ccc2c(/C=C/c3ccccn3)n[nH]c2c1 | 86 | 24
2 | O=C(NNC(=O)c1ccccc1Nc1ccc2c(/C=C/c3ccccn3)n[nH]c2c1)c1ccccc1O | 61 | 30
3 | O=C(Nc1cc[nH]n1)c1ccccc1Nc1ccc2c(/C=C/c3ccccn3)n[nH]c2c1 | 25 | 20
4 | CCCCCCCNC(=O)c1ccccc1Nc1ccc2c(/C=C/c3ccccn3)n[nH]c2c1 | 34 | 9
5 | COCCCNC(=O)c1ccccc1Nc1ccc2c(/C=C/c3ccccn3)n[nH]c2c1 | 31 | 26
6 | Nc1nnc(NC(=O)c2ccccc2Nc2ccc3c(/C=C/c4ccccn4)n[nH]c3c2)[nH]1 | 41 | -6
7 | CN(C)CCNC(=O)c1ccccc1Nc1ccc2c(/C=C/c3ccccn3)n[nH]c2c1 | 10 | 20
8 | O=C(Nc1nc[nH]n1)c1ccccc1Nc1ccc2c(/C=C/c3ccccn3)n[nH]c2c1 | 22 | 19
9 | O=C(NCCN1CCCC1)c1ccccc1Nc1ccc2c(/C=C/c3ccccn3)n[nH]c2c1 | 31 | 40
10 | Cn1cncc1CCNC(=O)c1ccccc1Nc1ccc2c(/C=C/c3ccccn3)n[nH]c2c1 | 0 | -6
11 | CC(C)(C)OC(=O)NCCNC(=O)c1ccccc1Nc1ccc2c(/C=C/c3ccccn3)n[nH]c2c1 | 60 | 78
12 | CCN(CC)C/C=C/CNC(=O)c1ccccc1Nc1ccc2c(/C=C/c3ccccn3)n[nH]c2c1 | 29 | 10
13 | Cc1cc(NC(=O)c2ccccc2Nc2ccc3c(/C=C/c4ccccn4)n[nH]c3c2)no1 | 14 | 28
14 | Cc1noc(NC(=O)c2ccccc2Nc2ccc3c(/C=C/c4ccccn4)n[nH]c3c2)c1C | 36 | 15
15 | C[N+]12CC[C@@H]1C(NC(=O)c1ccccc1Nc1ccc3c(/C=C/c4ccccn4)n[nH]c3c1)C2 (some centres undefined) | -9 | 15
16 | CCOCCCNC(=O)c1ccccc1Nc1ccc2c(/C=C/c3ccccn3)n[nH]c2c1 | 97 | 44
17 | CC(C)(N)CNC(=O)c1ccccc1Nc1ccc2c(/C=C/c3ccccn3)n[nH]c2c1 | 3 | 31
18 | O=C(NNc1ccccn1)c1ccccc1Nc1ccc2c(/C=C/c3ccccn3)n[nH]c2c1 | 35 to 92 | 19 to 32
19 | O=C(NCCc1ccccc1)c1ccccc1Nc1ccc2c(/C=C/c3ccccn3)n[nH]c2c1 | 99 | 15

Row | SMILES | inhibition at 0.002 µM [1] [%] | inhibition at 0.0005 µM [2] [%]
20 | COC[C@H]1CCCN1NC(=O)c1ccccc1Nc1ccc2c(/C=C/c3ccccn3)n[nH]c2c1 | 11 | 18
21 | CCC(COC)NC(=O)c1ccccc1Nc1ccc2c(/C=C/c3ccccn3)n[nH]c2c1 (centres undefined) | 65 | 1
22 | O=C(NCc1ccccn1)c1ccccc1Nc1ccc2c(/C=C/c3ccccn3)n[nH]c2c1 | 43 | 6
23 | O=C(NC1CCSC1=O)c1ccccc1Nc1ccc2c(/C=C/c3ccccn3)n[nH]c2c1 (centres undefined) | 40 | 25
24 | CC(C)CNC(=O)c1ccccc1Nc1ccc2c(/C=C/c3ccccn3)n[nH]c2c1 | 29 to 36 | 4 to 31
25 | CC(C)CCCC(C)NC(=O)c1ccccc1Nc1ccc2c(/C=C/c3ccccn3)n[nH]c2c1 (centres undefined) | 32 | 20
26 | CCCCC(CC)CNC(=O)c1ccccc1Nc1ccc2c(/C=C/c3ccccn3)n[nH]c2c1 (centres undefined) | 47 | 28
27 | CC(C)C(NC(=O)c1ccccc1Nc1ccc2c(/C=C/c3ccccn3)n[nH]c2c1)C(C)C | -2 | 18
28 | CN(C)CCCNC(=O)c1ccccc1Nc1ccc2c(/C=C/c3ccccn3)n[nH]c2c1 | 1 | 6
29 | O=C(Nc1ccon1)c1ccccc1Nc1ccc2c(/C=C/c3ccccn3)n[nH]c2c1 | 16 | 6
30 | CN1CCN(CCCNC(=O)c2ccccc2Nc2ccc3c(/C=C/c4ccccn4)n[nH]c3c2)CC1 | 4 | 0
31 | O=C(NCCCN1CCOCC1)c1ccccc1Nc1ccc2c(/C=C/c3ccccn3)n[nH]c2c1 | 14 | 5
32 | CCN1CCC[C@H]1CNC(=O)c1ccccc1Nc1ccc2c(/C=C/c3ccccn3)n[nH]c2c1 | 23 | 15
33 | COC(=O)NNC(=O)c1ccccc1Nc1ccc2c(/C=C/c3ccccn3)n[nH]c2c1 | 21 | 8
34 | CCCCN(CCCC)CCCNC(=O)c1ccccc1Nc1ccc2c(/C=C/c3ccccn3)n[nH]c2c1 | 10 | 32
35 | O=C(Nc1nc2ccccc2[nH]1)c1ccccc1Nc1ccc2c(/C=C/c3ccccn3)n[nH]c2c1 | 43 | 18
36 | CCN1CCCC1CNC(=O)c1ccccc1Nc1ccc2c(/C=C/c3ccccn3)n[nH]c2c1 (centres undefined) | 5 | 18
37 | CC1CCC(NC(=O)c2ccccc2Nc2ccc3c(/C=C/c4ccccn4)n[nH]c3c2)CC1 (centres undefined) | 42 | -11
38 | CCCCN(CC)CCNC(=O)c1ccccc1Nc1ccc2c(/C=C/c3ccccn3)n[nH]c2c1 | 6 | 2

Row | SMILES | inhibition at 0.002 µM [1] [%] | inhibition at 0.0005 µM [2] [%]
39 | N#CCCNNC(=O)c1ccccc1Nc1ccc2c(/C=C/c3ccccn3)n[nH]c2c1 | 5 | 44
40 | O=C(NCCCO)c1ccccc1Nc1ccc2c(/C=C/c3ccccn3)n[nH]c2c1 | 23 to 31 | 8 to 24
41 | O=C(Nc1nncs1)c1ccccc1Nc1ccc2c(/C=C/c3ccccn3)n[nH]c2c1 | 28 | 44
42 | N#CC1CCC(CNC(=O)c2ccccc2Nc2ccc3c(/C=C/c4ccccn4)n[nH]c3c2)CC1 (centres undefined) | 66 | 36
43 | O=C(NCCCN1CCCCC1)c1ccccc1Nc1ccc2c(/C=C/c3ccccn3)n[nH]c2c1 | 7 | 16
44 | O=C(NOCc1ccccc1)c1ccccc1Nc1ccc2c(/C=C/c3ccccn3)n[nH]c2c1 | 101 to 111 | 70 to 74
45 | CCCCCCC(C)NC(=O)c1ccccc1Nc1ccc2c(/C=C/c3ccccn3)n[nH]c2c1 (centres undefined) | 63 | 35
46 | CC1(C)CC(NC(=O)c2ccccc2Nc2ccc3c(/C=C/c4ccccn4)n[nH]c3c2)CC(C)(C)N1 | 10 | 35
47 | CCCC(C)NC(=O)c1ccccc1Nc1ccc2c(/C=C/c3ccccn3)n[nH]c2c1 (centres undefined) | 92 | 29
48 | CC1(C)OCC(CNC(=O)c2ccccc2Nc2ccc3c(/C=C/c4ccccn4)n[nH]c3c2)O1 (centres undefined) | 69 | 28
49 | COCC(C)NC(=O)c1ccccc1Nc1ccc2c(/C=C/c3ccccn3)n[nH]c2c1 (centres undefined) | 32 | 18
50 | O=C(NC1CCN(Cc2ccccc2)CC1)c1ccccc1Nc1ccc2c(/C=C/c3ccccn3)n[nH]c2c1 | 19 | 44
51 | O=C(Nn1cnnc1)c1ccccc1Nc1ccc2c(/C=C/c3ccccn3)n[nH]c2c1 | 13 | 17
52 | NC(=O)CNC(=O)c1ccccc1Nc1ccc2c(/C=C/c3ccccn3)n[nH]c2c1 | 4 | 6
53 | Cn1cccc1C(=O)NNC(=O)c1ccccc1Nc1ccc2c(/C=C/c3ccccn3)n[nH]c2c1 | 49 | 68
54 | O=C(NCC1CCC=CO1)c1ccccc1Nc1ccc2c(/C=C/c3ccccn3)n[nH]c2c1 (centres undefined) | 16 | 37
55 | CCC(CO)NC(=O)c1ccccc1Nc1ccc2c(/C=C/c3ccccn3)n[nH]c2c1 (centres undefined) | 23 | 22
56 | CC(C)(C)ONC(=O)c1ccccc1Nc1ccc2c(/C=C/c3ccccn3)n[nH]c2c1 | 64 | -3
57 | N=C(N)CNC(=O)c1ccccc1Nc1ccc2c(/C=C/c3ccccn3)n[nH]c2c1 | -1 | 7
